Where two headings read alike, the source gives them in different places.
Test system: Puccinia triticina; Synonym: Puccinia recondita f sp. tritici
Test: Wheat brown rust (PUCCRT) disease control on wheat seedlings
Assay type: in vivo
Conditions: Low Volume activity at 121.5 g/H
Procedure: All fungicides were evaluated using the aforementioned method for their activity vs. all target diseases, unless stated otherwise. Wheat leaf blotch and brown rust activity were also evaluated using track spray applications, in which case the fungicides were formulated as EC formulations, containing 0.1% Trycol 5941 in the spray solutions. Wheat plants (variety Yuma) were grown from seed in a greenhouse in 50% mineral soil/50% soil-less Metro mix until the first leaf was fully emerged, with 7-10 seedlings per pot. These plants were inoculated with an aqueous spore suspension of Puccinia triticina either prior to or after fungicide treatments. […] The plants were then transferred to a greenhouse set at 24° C. for disease to develop. Fungicide formulation, application and disease assessment followed the procedures as described in the Example A.

[1] = 24 h, 1 Day Protectant, read-out: PUCCRT 1DP % Control rating
[2] = 72 h, 3 Day Curative, read-out: PUCCRT 3DC % Control rating

For `COc1ccnc(C(=O)N[C@H]2CCC[C@H](Cc3ccccc3)[C@@H](CCc3ccccc3)[C@H](C)OC2=O)c1OC(C)=O` [Compound 18], the pest or weed control at 121.5 g/ha [1] was under 70% and the pest or weed control at 121.5 g/ha [2] was under 70%.

For `COc1ccnc(C(=O)N[C@H]2CCC[C@H](Cc3ccc(Cl)cc3)[C@@H](Cc3ccccc3)[C@H](C)OC2=O)c1OCOC(C)=O` [Compound 19], the pest or weed control at 121.5 g/ha [1] was over 70% and the pest or weed control at 121.5 g/ha [2] was under 70%.

`CCOCC(=O)OCOc1c(OC)ccnc1C(=O)N[C@H]1CCC[C@H](Cc2ccc(Cl)cc2)[C@@H](Cc2ccccc2)[C@H](C)OC1=O` [Compound 20] showed a pest or weed control at 121.5 g/ha [1] of over 70% and a pest or weed control at 121.5 g/ha [2] of over 70%.

`COc1ccnc(C(=O)N[C@H]2CCC[C@H](Cc3ccc(Cl)cc3)[C@@H](Cc3ccccc3)[C@H](C)OC2=O)c1OC(C)=O` [Compound 21] gave a pest or weed control at 121.5 g/ha [1] of over 70% and a pest or weed control at 121.5 g/ha [2] of under 70%.

In the case of `COc1ccnc(C(=O)N[C@H]2CCC[C@H](Cc3ccc(C(F)(F)F)cc3)[C@@H](CC(C)C)[C@H](C)OC2=O)c1OC(C)=O` [Compound 22], the pest or weed control at 121.5 g/ha [1] is reported as over 70% and the pest or weed control at 121.5 g/ha [2] is reported as under 70%.

With `COc1ccnc(C(=O)N[C@H]2CCC[C@H](Cc3ccc(C(F)(F)F)cc3)[C@@H](CC(C)C)[C@H](C)OC2=O)c1OCOC(C)=O` [Compound 23] the pest or weed control at 121.5 g/ha [1] was over 70% and the pest or weed control at 121.5 g/ha [2] was under 70%.

Compound `COc1ccnc(C(=O)N[C@H]2CCC[C@H](Cc3ccc(C(F)(F)F)cc3)[C@@H](CC(C)C)[C@H](C)OC2=O)c1OCOC(=O)C(C)C` [Compound 24] has a pest or weed control at 121.5 g/ha [1] of under 70% and a pest or weed control at 121.5 g/ha [2] of under 70%.

`COc1ccnc(C(=O)N[C@H]2CCC[C@H](Cc3ccc(C(F)(F)F)cc3)[C@@H](Cc3ccccc3)[C@H](C)OC2=O)c1OC(C)=O` [Compound 25] was tested, and the pest or weed control at 121.5 g/ha [1] was under 70% and the pest or weed control at 121.5 g/ha [2] was under 70%.

In the case of `COc1ccnc(C(=O)N[C@H]2CCC[C@H](Cc3ccc(C(F)(F)F)cc3)[C@@H](Cc3ccccc3)[C@H](C)OC2=O)c1OCOC(C)=O` [Compound 26], the pest or weed control at 121.5 g/ha [1] is reported as over 70% and the pest or weed control at 121.5 g/ha [2] is reported as under 70%.

Compound `COc1ccnc(C(=O)N[C@H]2CCC[C@H](Cc3ccc(C(F)(F)F)cc3)[C@@H](Cc3ccccc3)[C@H](C)OC2=O)c1OCOC(=O)C(C)C` [Compound 27] has a pest or weed control at 121.5 g/ha [1] of over 70% and a pest or weed control at 121.5 g/ha [2] of under 70%.

Work on `COc1ccnc(C(=O)N[C@H]2CCC[C@H](Cc3ccc(Cl)cc3)[C@@H](C3CCCC3)[C@H](C)OC2=O)c1OC(C)=O` [Compound 28] yielded a pest or weed control at 121.5 g/ha [1] of over 70% and a pest or weed control at 121.5 g/ha [2] of under 70%.

Compound `COc1ccnc(C(=O)N[C@H]2CCC[C@H](Cc3ccc(Cl)cc3)[C@@H](C3CCCC3)[C@H](C)OC2=O)c1OCOC(C)=O` [Compound 29] has a pest or weed control at 121.5 g/ha [1] of over 70% and a pest or weed control at 121.5 g/ha [2] of under 70%.

Compound `COc1ccnc(C(=O)N[C@H]2CCC[C@H](Cc3ccc(Cl)cc3)[C@@H](C3CCCC3)[C@H](C)OC2=O)c1OCOC(=O)C(C)C` [Compound 30] has a pest or weed control at 121.5 g/ha [1] of under 70% and a pest or weed control at 121.5 g/ha [2] of under 70%.

With `CCOCC(=O)OCOc1c(OC)ccnc1C(=O)N[C@H]1CCC[C@H](Cc2ccc(Cl)cc2)[C@@H](C2CCCC2)[C@H](C)OC1=O` [Compound 31] the pest or weed control at 121.5 g/ha [1] was over 70% and the pest or weed control at 121.5 g/ha [2] was under 70%.

`COc1ccnc(C(=O)N[C@H]2CCC[C@H](CCCc3ccccc3)[C@@H](CCc3ccccc3)[C@H](C)OC2=O)c1OCOC(C)=O` [Compound 32] showed a pest or weed control at 121.5 g/ha [1] of over 70% and a pest or weed control at 121.5 g/ha [2] of under 70%.

In the case of `COc1ccnc(C(=O)N[C@H]2CCC[C@H](CCCc3ccccc3)[C@@H](CCc3ccccc3)[C@H](C)OC2=O)c1OC(C)=O` [Compound 33], the pest or weed control at 121.5 g/ha [1] is reported as under 70% and the pest or weed control at 121.5 g/ha [2] is reported as under 70%.

For `COc1ccnc(C(=O)N[C@H]2CCC[C@H](CCC(C)C)[C@@H](CCc3ccccc3)[C@H](C)OC2=O)c1OCOC(C)=O` [Compound 34], the pest or weed control at 121.5 g/ha [1] was over 70% and the pest or weed control at 121.5 g/ha [2] was under 70%.

`CCOCC(=O)OCOc1c(OC)ccnc1C(=O)N[C@H]1CCC[C@H](CCC(C)C)[C@@H](CCc2ccccc2)[C@H](C)OC1=O` [Compound 35] showed a pest or weed control at 121.5 g/ha [1] of over 70% and a pest or weed control at 121.5 g/ha [2] of under 70%.

Work on `COc1ccnc(C(=O)N[C@H]2CCC[C@H](CCC(C)C)[C@@H](CCc3ccccc3)[C@H](C)OC2=O)c1OC(C)=O` [Compound 36] yielded a pest or weed control at 121.5 g/ha [1] of over 70% and a pest or weed control at 121.5 g/ha [2] of under 70%.

In the case of `CCC[C@H]1CCC[C@H](NC(=O)c2nccc(OC)c2OCOC(C)=O)C(=O)O[C@@H](C)[C@@H]1Cc1ccccc1` [Compound 37], the pest or weed control at 121.5 g/ha [1] is reported as over 70% and the pest or weed control at 121.5 g/ha [2] is reported as over 70%.

With `CCC[C@H]1CCC[C@H](NC(=O)c2nccc(OC)c2OC(C)=O)C(=O)O[C@@H](C)[C@@H]1Cc1ccccc1` [Compound 38] the pest or weed control at 121.5 g/ha [1] was over 70% and the pest or weed control at 121.5 g/ha [2] was over 70%.
